{"source": "patent US9969730B2", "about": "“Stable SNS-595 compositions and methods of preparation” (Sunesis Pharmaceuticals, Inc., priority 2009, dated 2018)", "origin": "cited, not measured here", "key": {"[1]": {"test_system": "various cancer cell lines"}, "[2]": {"test_system": "acute myeloid leukemia and ovarian cancer", "settings": "human cancer patients"}, "xenografts": {"test_system": "xenografts", "settings": "in vivo"}}}
{"smiles": "CN[C@H]1CN(c2ccc3c(=O)c(C(=O)O)cn(-c4nccs4)c3n2)C[C@@H]1OC", "note": "[SNS-595, (+)-1,4-dihydro-7-[(3S,4S)-3-methoxy-4-methylamino-1-pyrrolidinyl]-4-oxo-1-(2-thiazolyl)-1,8-naphthyridine-3-carboxylic acid]", "values": [{"measurement": "preclinical activity against various cancer cell lines", "setting": "[1]", "result": "preclinical activity"}, {"measurement": "clinical activity in the treatment of acute myeloid leukemia and ovarian cancer", "setting": "[2]", "result": "clinical activity"}, {"measurement": "preclinical activity against xenografts", "setting": "xenografts", "result": "preclinical activity"}]}
